These results are taken from the NIST ThermoML archive (doi:10.1021/je049778g).

± gives the expanded uncertainty stated by the source.

For the data set the following is noted: Liquid; for mass density: 298.15 K, 101.33 kPa.

In general, mass density refers to the mass of a sample divided by its volume.

Consider `CCO` [ethanol], for which the mass density is recorded as 785.1 ± 0.3 kg/m3 and the Normal boiling temperature stood at 78.31 ± 0.03 °C.

Turning to `CO` [methanol], the mass density turned out to be 786.5 ± 0.3 kg/m3 and the Normal boiling temperature was 64.52 ± 0.03 °C.

For the molecule `CCCO` [propan-1-ol], the mass density came to 799.5 ± 0.2 kg/m3 and the Normal boiling temperature came out at 97.04 ± 0.03 °C.

As to `CC(C)O` [propan-2-ol], the mass density was determined as 780.8 ± 0.3 kg/m3 and the Normal boiling temperature came out at 82.26 ± 0.03 °C.
